We go through 1 substance from paper PMC9950431, “A bivalent remipede toxin promotes calcium release via ryanodine receptor activation” (Nature Communications, 2023).

For assay [1], the system named is RyR2. The assay is described as follows: Washout (reversibility/avidity) single channel experiments, RyR2. The class given is biochemical, sheep (cardiac SR). The note with it: 10 nM and 1 μM. As to the method: Cardiac SR was prepared from mature female crossbred sheep hearts, and skeletal SR vesicles were isolated from the back and leg muscles of mature female New Zealand white rabbits[29],[54] with approval from the ANU Animal Experiment Ethics Committee Protocol Number A2015/35. […] Solutions for vesicle incorporation contained (mM): cis 230 caesium methanesulfonate (CsMS); 20 CsCl; 1 CaCl2 and 10 […] (TES) pH 7.4 and trans 30 CsMS; 20 CsCl; 1 CaCl2 10 TES; pH 7.4. SR vesicles routinely incorporated with the cytoplasmic surface of the SR and RyR facing the cis chamber. Following incorporation, 200 mM CsMS was added to the trans solution and the cis solution exchanged with recording solution containing (mM): 230 CsMS; 20 CsCl; 0.001 CaCl2;10 TES and pH 7.4, with [Ca^2+] set by a [BAPTA] determined using a Ca^2+ electrode. […] Electrophysiology experiments were analysed using Channel 2 (P.W. Gage, M. Smith, Australian National University) and Channel 3 (N.W. Laver, University of Newcastle, Australia) software, available from the authors upon request. […] Following most incorporation events, a single channel only was active in the bilayer and channel open probability (Po), mean open time (To), mean closed time (Tc) and open event frequency (Fo) were measured. […] In all experiments control channel activity was recorded for 3 to 5 min before exposure to the test compound. […]

Assay [2] concerns CaV2.2. As to the kind of experiment: FLIPR Ca2+ assay, inhibition of endogenous CaV2.2. It is filed as cell-based, human. The following applies: for Ca2+ response relative to control response: 3 µM Xt3a pre-treatment, KCl 90 mM/CaCl2 5 mM + nifedipine 10 μM, over 300 s. As to the method:
SH-SY5Y human neuroblastoma cells (European Collection of Authenticated Cell Culture, Sigma Aldrich, 94030304-1VL) were cultured in RPMI media (ThermoFisher Scientific, Scoresby, Australia) supplemented with 15% foetal bovine serum and L-glutamine (1 mM) and passaged at approximately 80% confluency with TrypLE Express (Thermo Fisher, Australia). For fluorescence imaging, cells were plated on CellBIND (Corning) 384-well black-walled imaging plates at a density of 20,000–30,000 cells/well in complete media and cultured for 48 h at 37 °C/5% CO2.
Briefly, SH-SY5Y cells were loaded with Calcium 4 no-wash dye (Molecular Devices) diluted in physiological salt solution (composition in mM: NaCl 140, D-glucose 11.5, KCl 5.9, MgCl2 1.4, NaH2PO4 1.2, NaHCO3 5, CaCl2 1.8, HEPES 10) for 30 min at 37 °C. A two-addition FLIPR^Tetra (Molecular Devices) protocol using the following settings was used to measure fluorescence responses: excitation 470–495 nm; emission 515–575 nm; excitation intensity 80%; excitation duration 0.8 s; gain 140; read interval 1/s; read number 300/addition. Responses mediated via endogenously expressed ion channels were elicited by addition of: choline (30 μM)/PNU-120596 (10 μM) for α7 nAChR-mediated responses; nicotine (30 μM) for α3β2/α3β4 nAChR-mediated responses; KCl (90 mM)/CaCl2 (5 mM) for CaV1.3-mediated responses; KCl (90 mM)/CaCl2 (5 mM) + nifedipine (10 μM) for CaV2.2-mediated responses; vertridine (70 μM) for NaV1.2-mediated responses; and veratridine (4 μM)/OD1 (300 nM) for NaV1.7-mediated responses. Raw fluorescence readings were converted to response over baseline using the analysis tool Screenworks 3.1.1.4 (Molecular Devices) and were expressed relative to the maximum increase in fluorescence of control responses and plotted using GraphPad Prism 9.3.1.
In the cell-based FLIPR assays statistical analysis was performed using GraphPad Prism 9.3.1. Statistical significance was defined as p < 0.05, and determined by one-sample t-test assessing difference to the control value of 100%. In α7 nAChR, α3-containing nAChR, CaV1.3, CaV2.2, NaV1.2 and NaV1.7 channels (Supplementary Fig. 5B), with distribution (t) and degrees of freedom (df) being: t = 0.9683, df = 2 (α7); t = 1.338, df = 2 (α3); t = 1.775, df = 2 (NaV1.2); t = 1.478

As for φ-Xibalbin3-Xt3a, in assay [1], the “channel activity during washout” value is listed as “activity did appear to increase somewhat during washout”. Besides, the “Ca2+ response relative to control response” value in assay [2] (replicate 1) was 99.2207%; in assay [2] (replicate 2) it was 92.2928%; in assay [2] (replicate 3), 79.9392%. Besides, the “inhibition of Ca2+ responses” value in assay [2] (Xt3a 3 µM) is reported as “did not inhibit Ca^2+ responses”.
